Reference: ChEMBL document CHEMBL4507329, “Data for DCP probe BTZO-1” (2021)

Key:
[1] = molecular target: Serine/threonine-protein kinase SIK2 (Homo sapiens) (UniProt Q9H0K1); settings: Compound concentration 1000.0 nM
[2] = tested on: Epidermal growth factor receptor (Homo sapiens), P00533 [UNDEFINED MUTATION]; settings: Compound concentration 1000.0 nM
[3] = molecular target: Fibroblast growth factor receptor 3 (Homo sapiens) (UniProt P22607); settings: Compound concentration 1000.0 nM
[4] = molecular target: Myotonin-protein kinase (Homo sapiens) (UniProt Q09013); settings: Compound concentration 1000.0 nM
[5] = molecular target: Cyclin-G-associated kinase (Homo sapiens) (UniProt O14976); settings: Compound concentration 1000.0 nM
[6] = molecular target: Mitogen-activated protein kinase kinase kinase kinase 4 (Homo sapiens) (UniProt O95819); settings: Compound concentration 1000.0 nM
[7] = molecular target: Activin receptor type-2B (Homo sapiens) (UniProt Q13705); settings: Compound concentration 1000.0 nM
[8] = tested on: Receptor-type tyrosine-protein kinase FLT3 (Homo sapiens), P36888 [D835H]; settings: Compound concentration 1000.0 nM
[9] = molecular target: Protein-tyrosine kinase 6 (Homo sapiens) (UniProt Q13882); settings: Compound concentration 1000.0 nM
[10] = molecular target: Serine/threonine-protein kinase TBK1 (Homo sapiens) (UniProt Q9UHD2); settings: Compound concentration 1000.0 nM
[11] = molecular target: Serine/threonine-protein kinase 25 (Homo sapiens) (UniProt O00506); settings: Compound concentration 1000.0 nM
[12] = molecular target: Ribosomal protein S6 kinase alpha-1 (Homo sapiens) (UniProt Q15418); settings: Compound concentration 1000.0 nM
[13] = molecular target: Serine/threonine-protein kinase 10 (Homo sapiens) (UniProt O94804); settings: Compound concentration 1000.0 nM
[14] = molecular target: Dual specificity mitogen-activated protein kinase kinase 6 (Homo sapiens) (UniProt P52564); settings: Compound concentration 1000.0 nM
[15] = molecular target: Interleukin-1 receptor-associated kinase 4 (Homo sapiens) (UniProt Q9NWZ3); settings: Compound concentration 1000.0 nM
[16] = molecular target: Membrane-associated tyrosine- and threonine-specific cdc2-inhibitory kinase (Homo sapiens) (UniProt Q99640); settings: Compound concentration 1000.0 nM
[17] = tested on: Phosphatidylinositol 4,5-bisphosphate 3-kinase catalytic subunit alpha isoform (Homo sapiens), P42336 [E545A]; settings: Compound concentration 1000.0 nM
[18] = molecular target: Dual specificity protein kinase TTK (Homo sapiens) (UniProt P33981); settings: Compound concentration 1000.0 nM
[19] = molecular target: Calcium/calmodulin-dependent protein kinase type II subunit delta (Homo sapiens) (UniProt Q13557); settings: Compound concentration 1000.0 nM
[20] = tested on: Proto-oncogene tyrosine-protein kinase receptor Ret (Homo sapiens), P07949 [V804L]; settings: Compound concentration 1000.0 nM
[21] = molecular target: Cyclin-dependent kinase 15 (Homo sapiens) (UniProt Q96Q40); settings: Compound concentration 1000.0 nM
[22] = molecular target: cGMP-dependent protein kinase 1 (Homo sapiens) (UniProt Q13976); settings: Compound concentration 1000.0 nM
[23] = molecular target: Ribosomal protein S6 kinase alpha-5 (Homo sapiens) (UniProt O75582); settings: Compound concentration 1000.0 nM
[24] = molecular target: Sodium-dependent dopamine transporter (Homo sapiens) (UniProt Q01959); settings: Compound concentration 10.0 uM
[25] = molecular target: Tyrosine-protein kinase Mer (Homo sapiens) (UniProt Q12866); settings: Compound concentration 1000.0 nM
[26] = molecular target: Ankyrin repeat and protein kinase domain-containing protein 1 (Homo sapiens) (UniProt Q8NFD2); settings: Compound concentration 1000.0 nM
[27] = molecular target: D(1A) dopamine receptor (Homo sapiens) (UniProt P21728); settings: Compound concentration 10.0 uM
[28] = molecular target: Cyclin-dependent kinase 4 (Homo sapiens) (UniProt P11802); settings: Compound concentration 1000.0 nM
[29] = molecular target: G protein-coupled receptor kinase 4 (Homo sapiens) (UniProt P32298); settings: Compound concentration 1000.0 nM
[30] = molecular target: Fibroblast growth factor receptor 4 (Homo sapiens) (UniProt P22455); settings: Compound concentration 1000.0 nM
[31] = molecular target: Mitogen-activated protein kinase 6 (Homo sapiens) (UniProt Q16659); settings: Compound concentration 1000.0 nM
[32] = molecular target: Mitogen-activated protein kinase kinase kinase 12 (Homo sapiens) (UniProt Q12852); settings: Compound concentration 1000.0 nM
[33] = molecular target: SRSF protein kinase 3 (Homo sapiens) (UniProt Q9UPE1); settings: Compound concentration 1000.0 nM
[34] = molecular target: Bone morphogenetic protein receptor type-1A (Homo sapiens) (UniProt P36894); settings: Compound concentration 1000.0 nM
[35] = molecular target: Ephrin type-A receptor 1 (Homo sapiens) (UniProt P21709); settings: Compound concentration 1000.0 nM
[36] = molecular target: Atypical kinase COQ8B, mitochondrial (Homo sapiens) (UniProt Q96D53); settings: Compound concentration 1000.0 nM
[37] = molecular target: Serine/threonine-protein kinase 26 (Homo sapiens) (UniProt Q9P289); settings: Compound concentration 1000.0 nM
[38] = molecular target: G protein-coupled receptor kinase 3 (Homo sapiens) (UniProt P35626); settings: Compound concentration 1000.0 nM
[39] = molecular target: MAP/microtubule affinity-regulating kinase 4 (Homo sapiens) (UniProt Q96L34); settings: Compound concentration 1000.0 nM
[40] = molecular target: cAMP-dependent protein kinase catalytic subunit alpha (Homo sapiens) (UniProt P17612); settings: Compound concentration 1000.0 nM
[41] = molecular target: Serine/threonine-protein kinase MRCK alpha (Homo sapiens) (UniProt Q5VT25); settings: Compound concentration 1000.0 nM
[42] = molecular target: Ribosomal protein S6 kinase alpha-4 (Homo sapiens) (UniProt O75676); settings: Compound concentration 1000.0 nM
[43] = molecular target: High affinity nerve growth factor receptor (Homo sapiens) (UniProt P04629); settings: Compound concentration 1000.0 nM
[44] = molecular target: Tyrosine-protein kinase Srms (Homo sapiens) (UniProt Q9H3Y6); settings: Compound concentration 1000.0 nM
[45] = molecular target: Receptor-interacting serine/threonine-protein kinase 2 (Homo sapiens) (UniProt O43353); settings: Compound concentration 1000.0 nM

Chain of Phosphatidylinositol 4,5-bisphosphate 3-kinase catalytic subunit alpha isoform (Homo sapiens), P42336 [E545A] (P42336 whole entry E545A, canonical isoform): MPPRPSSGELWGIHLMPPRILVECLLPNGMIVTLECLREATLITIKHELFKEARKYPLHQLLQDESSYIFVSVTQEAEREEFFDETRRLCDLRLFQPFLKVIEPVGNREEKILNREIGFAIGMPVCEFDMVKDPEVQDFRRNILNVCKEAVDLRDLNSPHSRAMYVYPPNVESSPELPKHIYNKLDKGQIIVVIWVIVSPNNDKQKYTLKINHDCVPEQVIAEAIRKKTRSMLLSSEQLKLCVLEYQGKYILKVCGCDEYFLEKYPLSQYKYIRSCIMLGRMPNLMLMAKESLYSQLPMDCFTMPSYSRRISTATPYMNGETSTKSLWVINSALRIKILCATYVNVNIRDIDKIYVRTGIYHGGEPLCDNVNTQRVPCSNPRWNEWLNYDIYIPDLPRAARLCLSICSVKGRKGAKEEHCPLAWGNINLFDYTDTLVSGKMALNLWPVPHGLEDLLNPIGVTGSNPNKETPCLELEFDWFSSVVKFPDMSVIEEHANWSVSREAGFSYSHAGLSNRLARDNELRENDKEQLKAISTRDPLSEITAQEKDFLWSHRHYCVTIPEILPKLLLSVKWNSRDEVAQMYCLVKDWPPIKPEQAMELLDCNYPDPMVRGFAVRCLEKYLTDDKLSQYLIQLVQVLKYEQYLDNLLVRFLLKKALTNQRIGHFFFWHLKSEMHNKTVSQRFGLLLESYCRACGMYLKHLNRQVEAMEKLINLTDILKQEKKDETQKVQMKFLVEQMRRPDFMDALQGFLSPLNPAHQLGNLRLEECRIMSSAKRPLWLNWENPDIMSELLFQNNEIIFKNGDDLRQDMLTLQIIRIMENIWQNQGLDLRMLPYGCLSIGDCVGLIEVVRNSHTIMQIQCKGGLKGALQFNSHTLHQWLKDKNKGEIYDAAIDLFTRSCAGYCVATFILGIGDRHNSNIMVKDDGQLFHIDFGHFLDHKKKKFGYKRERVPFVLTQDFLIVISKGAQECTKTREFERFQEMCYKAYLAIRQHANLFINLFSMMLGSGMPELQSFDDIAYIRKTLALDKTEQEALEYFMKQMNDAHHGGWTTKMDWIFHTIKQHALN
Chain of Serine/threonine-protein kinase MRCK alpha (Homo sapiens) (Q5VT25 whole entry): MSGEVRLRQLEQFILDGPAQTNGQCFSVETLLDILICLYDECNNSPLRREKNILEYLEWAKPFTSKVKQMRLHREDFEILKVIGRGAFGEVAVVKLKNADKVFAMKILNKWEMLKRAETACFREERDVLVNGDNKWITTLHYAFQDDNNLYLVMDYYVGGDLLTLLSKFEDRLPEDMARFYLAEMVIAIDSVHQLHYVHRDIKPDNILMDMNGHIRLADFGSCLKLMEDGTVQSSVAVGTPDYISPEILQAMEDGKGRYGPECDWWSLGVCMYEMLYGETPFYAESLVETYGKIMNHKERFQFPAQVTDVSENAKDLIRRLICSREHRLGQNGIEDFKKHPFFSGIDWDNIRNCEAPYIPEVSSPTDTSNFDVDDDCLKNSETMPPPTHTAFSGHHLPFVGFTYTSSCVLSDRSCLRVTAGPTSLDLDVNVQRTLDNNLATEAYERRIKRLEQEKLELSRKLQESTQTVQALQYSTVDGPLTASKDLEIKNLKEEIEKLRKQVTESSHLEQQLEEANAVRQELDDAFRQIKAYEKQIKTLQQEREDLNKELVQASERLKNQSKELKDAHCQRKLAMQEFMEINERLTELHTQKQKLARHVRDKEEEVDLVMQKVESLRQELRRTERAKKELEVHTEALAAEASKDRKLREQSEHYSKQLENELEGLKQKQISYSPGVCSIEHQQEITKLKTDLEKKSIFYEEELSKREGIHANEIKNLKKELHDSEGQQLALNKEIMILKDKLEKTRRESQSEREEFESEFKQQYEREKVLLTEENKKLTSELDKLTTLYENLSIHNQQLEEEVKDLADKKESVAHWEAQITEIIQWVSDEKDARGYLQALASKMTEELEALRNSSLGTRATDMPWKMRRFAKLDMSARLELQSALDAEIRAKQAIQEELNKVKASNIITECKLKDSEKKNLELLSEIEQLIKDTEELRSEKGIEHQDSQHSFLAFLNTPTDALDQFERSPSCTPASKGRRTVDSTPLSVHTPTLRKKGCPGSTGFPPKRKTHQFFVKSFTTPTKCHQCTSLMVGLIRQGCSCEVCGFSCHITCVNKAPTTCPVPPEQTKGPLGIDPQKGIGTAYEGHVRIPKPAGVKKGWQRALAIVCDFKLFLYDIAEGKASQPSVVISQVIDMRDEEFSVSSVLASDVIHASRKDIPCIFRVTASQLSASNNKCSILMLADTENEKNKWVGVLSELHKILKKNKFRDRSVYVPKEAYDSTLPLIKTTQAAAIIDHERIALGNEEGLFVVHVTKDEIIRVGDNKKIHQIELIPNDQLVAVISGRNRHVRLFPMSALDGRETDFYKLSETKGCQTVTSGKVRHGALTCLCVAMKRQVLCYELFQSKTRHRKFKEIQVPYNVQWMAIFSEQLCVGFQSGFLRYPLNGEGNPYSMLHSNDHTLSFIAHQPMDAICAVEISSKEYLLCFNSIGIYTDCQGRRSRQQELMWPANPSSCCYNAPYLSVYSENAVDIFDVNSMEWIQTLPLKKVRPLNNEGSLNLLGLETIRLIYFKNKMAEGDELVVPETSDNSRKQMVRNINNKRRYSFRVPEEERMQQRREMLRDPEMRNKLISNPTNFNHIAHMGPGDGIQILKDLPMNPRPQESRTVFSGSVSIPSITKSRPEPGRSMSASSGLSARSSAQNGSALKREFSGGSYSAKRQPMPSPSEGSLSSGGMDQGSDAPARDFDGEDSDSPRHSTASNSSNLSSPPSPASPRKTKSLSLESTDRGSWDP
Chain of Fibroblast growth factor receptor 3 (Homo sapiens) (P22607 23-806 limits assumed): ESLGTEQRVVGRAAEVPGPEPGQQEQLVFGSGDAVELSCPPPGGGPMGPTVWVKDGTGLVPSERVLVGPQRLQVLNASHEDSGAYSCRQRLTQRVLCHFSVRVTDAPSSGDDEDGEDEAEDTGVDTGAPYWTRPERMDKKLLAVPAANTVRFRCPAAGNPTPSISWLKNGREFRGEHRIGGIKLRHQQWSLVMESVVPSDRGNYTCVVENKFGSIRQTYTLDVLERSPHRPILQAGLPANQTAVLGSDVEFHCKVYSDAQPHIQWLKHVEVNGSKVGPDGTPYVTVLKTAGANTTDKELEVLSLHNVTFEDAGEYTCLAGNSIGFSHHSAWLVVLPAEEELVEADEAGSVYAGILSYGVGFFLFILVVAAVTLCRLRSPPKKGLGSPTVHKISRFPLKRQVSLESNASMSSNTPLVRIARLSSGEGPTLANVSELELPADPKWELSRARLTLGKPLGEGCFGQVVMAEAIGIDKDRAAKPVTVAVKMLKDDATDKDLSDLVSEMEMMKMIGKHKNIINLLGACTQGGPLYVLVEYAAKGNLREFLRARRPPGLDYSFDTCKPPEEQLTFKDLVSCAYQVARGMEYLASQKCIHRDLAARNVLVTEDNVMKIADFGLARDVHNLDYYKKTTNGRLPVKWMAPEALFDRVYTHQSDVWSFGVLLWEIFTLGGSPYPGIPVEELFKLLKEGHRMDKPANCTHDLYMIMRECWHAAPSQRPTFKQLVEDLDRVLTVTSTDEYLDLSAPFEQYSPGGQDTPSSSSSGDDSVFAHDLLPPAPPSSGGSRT
Chain of Proto-oncogene tyrosine-protein kinase receptor Ret (Homo sapiens), P07949 [V804L] (P07949 whole entry V804L): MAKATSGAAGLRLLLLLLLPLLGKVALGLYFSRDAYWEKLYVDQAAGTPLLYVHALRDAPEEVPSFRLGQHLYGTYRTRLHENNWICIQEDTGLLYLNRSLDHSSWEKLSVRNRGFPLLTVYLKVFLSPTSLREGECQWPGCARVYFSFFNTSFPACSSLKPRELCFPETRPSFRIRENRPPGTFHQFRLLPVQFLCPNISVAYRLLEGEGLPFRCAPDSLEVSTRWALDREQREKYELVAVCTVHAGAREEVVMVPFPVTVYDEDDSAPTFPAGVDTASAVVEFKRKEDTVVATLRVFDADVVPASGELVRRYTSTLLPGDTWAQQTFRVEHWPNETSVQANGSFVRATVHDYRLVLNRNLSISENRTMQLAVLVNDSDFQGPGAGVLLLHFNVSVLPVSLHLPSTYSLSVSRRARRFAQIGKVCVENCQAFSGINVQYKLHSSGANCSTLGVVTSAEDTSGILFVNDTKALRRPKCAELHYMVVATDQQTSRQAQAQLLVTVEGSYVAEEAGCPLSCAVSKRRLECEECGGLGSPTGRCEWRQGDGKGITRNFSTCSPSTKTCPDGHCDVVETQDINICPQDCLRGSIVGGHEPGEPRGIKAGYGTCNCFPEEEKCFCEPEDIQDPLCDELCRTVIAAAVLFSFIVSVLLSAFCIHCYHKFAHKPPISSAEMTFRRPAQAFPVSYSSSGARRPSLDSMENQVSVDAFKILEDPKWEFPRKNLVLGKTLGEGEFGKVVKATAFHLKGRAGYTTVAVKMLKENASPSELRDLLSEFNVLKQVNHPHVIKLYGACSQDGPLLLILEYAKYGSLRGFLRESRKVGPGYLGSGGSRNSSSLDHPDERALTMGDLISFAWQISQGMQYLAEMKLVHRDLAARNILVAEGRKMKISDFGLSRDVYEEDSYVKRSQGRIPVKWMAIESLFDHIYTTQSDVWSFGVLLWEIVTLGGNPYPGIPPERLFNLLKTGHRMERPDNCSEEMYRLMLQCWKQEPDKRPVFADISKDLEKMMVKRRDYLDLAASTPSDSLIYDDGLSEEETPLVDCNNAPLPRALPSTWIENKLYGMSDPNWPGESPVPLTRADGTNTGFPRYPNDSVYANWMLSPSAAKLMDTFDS
Chain of Dual specificity mitogen-activated protein kinase kinase 6 (Homo sapiens) (P52564 whole entry): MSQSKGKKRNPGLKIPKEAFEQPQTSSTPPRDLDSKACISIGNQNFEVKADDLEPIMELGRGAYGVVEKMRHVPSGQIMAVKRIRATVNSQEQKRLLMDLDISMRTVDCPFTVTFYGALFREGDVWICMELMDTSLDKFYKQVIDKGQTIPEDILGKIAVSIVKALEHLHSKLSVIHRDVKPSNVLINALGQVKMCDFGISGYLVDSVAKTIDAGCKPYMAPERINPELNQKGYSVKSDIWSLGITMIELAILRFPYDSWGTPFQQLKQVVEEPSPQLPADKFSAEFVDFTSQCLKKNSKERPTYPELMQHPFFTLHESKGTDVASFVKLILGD

With O=c1nc(-c2ccccn2)sc2ccccc12 [BTZO-1] the residual activity [1] was 86%, the residual activity [2] was 84% and the residual activity [3] was 83%. The residual activity [4] was 100%, the residual activity [5] was 97% and the residual activity [6] was 100%. For the same compound, the residual activity [7] was 100%, the residual activity [8] was 74% and the residual activity [9] was 100%. It also gave a residual activity [10] of 91%, a residual activity [11] of 100% and a residual activity [12] of 100%. The residual activity [13] was 99%, the residual activity [14] was 100% and the residual activity [15] was 100%. It also gave a residual activity [16] of 100%, a residual activity [17] of 92% and a residual activity [18] of 100%. For the same compound, the residual activity [19] was 90%, the residual activity [20] was 70% and the residual activity [21] was 75%. It also gave a residual activity [22] of 100%, a residual activity [23] of 88% and an inhibition [24] of -3.83%. It also gave a residual activity [25] of 82%, a residual activity [26] of 100% and an inhibition [27] of 3.24%. It also gave a residual activity [28] of 100%, a residual activity [29] of 100% and a residual activity [30] of 73%. The residual activity [31] was 73%, the residual activity [32] was 100% and the residual activity [33] was 100%. It also gave a residual activity [34] of 100%, a residual activity [35] of 100% and a residual activity [36] of 60%. For the same compound, the residual activity [37] was 100%, the residual activity [38] was 51% and the residual activity [39] was 100%. For the same compound, the residual activity [40] was 91%, the residual activity [41] was 91% and the residual activity [42] was 80%. For the same compound, the residual activity [43] was 100%, the residual activity [44] was 87% and the residual activity [45] was 82%.

O=C1NC(c2ccccn2)Sc2ccccc21 (stereo not given) [BTZO-4] was tested, and the residual activity [1] was 96%, the residual activity [2] was 92% and the residual activity [3] was 97%. For the same compound, the residual activity [4] was 100%, the residual activity [5] was 100% and the residual activity [6] was 100%. For the same compound, the residual activity [7] was 100%, the residual activity [8] was 65% and the residual activity [9] was 100%. It also gave a residual activity [10] of 87%, a residual activity [11] of 78% and a residual activity [12] of 100%. For the same compound, the residual activity [13] was 100%, the residual activity [14] was 100% and the residual activity [15] was 100%. For the same compound, the residual activity [16] was 100%, the residual activity [17] was 97% and the residual activity [18] was 91%. The residual activity [19] was 75%, the residual activity [20] was 69% and the residual activity [21] was 63%. The residual activity [22] was 100%, the residual activity [23] was 87% and the inhibition [24] was -2.05%. The residual activity [25] was 75%, the residual activity [26] was 77% and the inhibition [27] was 7.77%. The residual activity [28] was 91%, the residual activity [29] was 100% and the residual activity [30] was 89%. The residual activity [31] was 72%, the residual activity [32] was 100% and the residual activity [33] was 100%. For the same compound, the residual activity [34] was 100%, the residual activity [35] was 100% and the residual activity [36] was 67%. It also gave a residual activity [37] of 80%, a residual activity [38] of 42% and a residual activity [39] of 100%. It also gave a residual activity [40] of 81%, a residual activity [41] of 84% and a residual activity [42] of 74%. For the same compound, the residual activity [43] was 100%, the residual activity [44] was 84% and the residual activity [45] was 100%.
